Measurements reported in patent publication US8378098B2, “Imidazol[1,2-α]quinoxalines and derivatives for the treatment of cancers” (Universite de Montpellier I, priority 2007, dated 2013).
“Also recorded” adds a separate entry of the source.

What was measured:
M4Be (melanoma) = assay: in vitro cytotoxicity on M4Be melanoma line; type: cell-based; conditions: Homo sapiens, Table 2, unit inferred, read-out: IC50 M4Be
Text: (§1) Several human carcinoma cell lines were used: • Lines A375, M4Be, RPMI7591 from human melanoma. • Line LS174T from colon carcinoma. • Line A 2780 from ovarian carcinoma. • The Raji line from B lymphoma. • Line MCF7 from breast carcinoma.

MCF7 (breast cancer) = assay: in vitro cytotoxicity on MCF7 breast cancer line; type: cell-based; conditions: Homo sapiens, Table 2, unit inferred
Text: as §1

[1] = system: normal lymphocytes activated or not activated by PHA; assay: growth of normal lymphocytes at rest or activated by PHA; type: cell-based, human; conditions: two healthy subjects
Protocol: FIG. 2: HTLV-I-positive and HTLV-I-negative malignant human cell lines are sensitive to EAPB0203, but activated or inactivated normal T lymphocytes are resistant. Effects of EAPB0203 on the growth of human T lines not infected by HTLV-I (CEM, Jurkatt, Molt-4 and HuT-78), HTLV-I-positive human T lines (HuT-102 and C8166, and MT2), and normal lymphocytes at rest or activated by PHA. The activated normal PBMC were supplemented with 2% PHA. EAPB0203 was added at the concentrations indicated in mole/l for 24-96 h. Cell growth is analyzed with the “CellTiter 96®” nonradioactive cell growth kit. The results are expressed as a percentage of the control (0.1% DMSO) and represent the mean of the results obtained in three independent experiments.
The in vitro activity of EAPB0203 on adult T-cell leukemia (ATL) transformed by retrovirus HTLV-I (HuT-102, MT2 . . . ) and malignant HTLV-I-negative T-cells (CEM, Jurkatt . . . ) was evaluated. Initially, the effect of EAPB0203 on cell growth of these lines was evaluated by two techniques, the nonradioactive “CellTiter 96®” cell growth kit and the trypan blue exclusion method.

[2] = system: CEM, HuT-102, MT2, and Jurkatt cells; assay: cell cycle analysis by flow cytometry (propidium iodide); type: cell-based, human
Protocol: (A) Effects of EAPB0203 on the distribution of the cell cycle of CEM, HuT-102, MT2, and Jurkatt cells. The cells treated by EAPB0203 were marked with propidium iodide ([…]) and analysis of the cellular cycle was carried out by FACScan flow cytometry. (b) The pre-G1 percentage represents the apoptotic cells. (c) The cells in cycle, the sum of phases (S+G2/M), are represented as a percentage of non-apoptotic cells. The results represent two independent experiments.
The mechanisms of inhibition of cell proliferation caused by EAPB0203 in the cell lines studied were determined by flow cytometry. This study evaluated the distribution of cells in the various phases of the cell cycle. […] This pre-G0/G1 peak corresponds to cells whose DNA content is decreased by loss of cleaved DNA fragments during cell death (FIG. 3).

[3] = system: CEM and HuT-102 cells; HuT-102 and MT2 cells; assay: protein expression by western blot (caspases, Bcl-2 family, cell cycle regulators); type: cell-based, human
Text: Proteinic cell extracts were obtained after various treatments and evaluation of the expression of certain proteins was studied by western blot.
Activation of the mitochondrial route is controlled by members of the Bcl-2 family. […] In the cell lines infected or not infected by HTLV-I, the effect of EAPB0203 on regulators of the cell cycle is studied.

treated cell lines = assay: mitochondrial route of apoptosis (Rhodamine 123 transmembrane potential, cytochrome C localization); type: cell-based, human
Text: Mitochondria play a central role in apoptotic mechanisms. The first detectable cellular disturbance during the apoptotic process is a reduction in mitochondrial transmembrane potential.
Indeed, activation of the intrinsic mitochondrial route in the cells studied is shown.

SMILES: CNc1nc2ccccc2n2c(CCc3ccccc3)cnc12 [EAPB0203, N-methyl-1-(2-phenylethyl)imidazo[1,2-a]quinoxalin-4-amine]
- IC50 (M4Be (melanoma)): 2.58 ± 0.4 µM
- IC50 (MCF7 (breast cancer)): 1.08 ± 0.46 µM
- growth of normal lymphocytes [1]: completely resistant
- pre-G0/G1 apoptotic population [2]: presence of a pre-G0/G1 apoptotic population
- distribution of cells in the phases of the cell cycle ([2]; propidium iodide): induces the termination of the cell cycle in phase G2/M; also recorded: progressive accumulation of cells in phase G2
- caspases (cleavage of PARP, procaspase-3, -8, -9) ([3]; CEM and HuT-102 cells, western blot): activation of caspases
- expression of proteins p21 and p53 ([3]; HuT-102 and MT2 cells (HTLV-I-positive)): significant increase
- apoptosis under co-treatment by caspase inhibitor zVAD ([3]; co-treatment with zVAD): partial protection
- expression of IAP-1 proteins and bcl-xL ([3]; western blot): significant reduction
- mitochondrial transmembrane potential (treated cell lines; Rhodamine 123, flow cytometry): drop in the mitochondrial transmembrane potential
- sub-cellular localization of cytochrome C (treated cell lines; treated cell lines): presence of cytochrome C in the cytoplasm
